Experimental findings from patent publication US12209081B2 (Katholieke Universiteit Leuven, priority 2020, dated 2025) are described below.

For this assay, the target named is mouse TRPM3α2 (mTRPM3) ion channel (Mus musculus (Mouse), UniProt J9SQF3). Put plainly: TRPM3 ion channel driven Ca2+ uptake, Fluo-4 AM assay, mTRPM3alpha2 overexpressing flip-in HEK293 cells stimulated with pregnenolone sulfate. The format is cell-based. The gist of the method:
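Read-out is Ca2+ influx via Fluo-4 AM fluorescence at 485/535 nm, taken right after seeding ~2000 cells/well onto compound with 50 μM PS. Inhibition computed from RFU between vehicle-stimulated and positive-control-inhibitor wells; cells were mTRPM3α2-overexpressing flip-in HEK293.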

Setting [1] is: PS (50 μM) stimulated, cpd 001-199.
The mark [2] stands for this setting: PS (50 μM) stimulated, cpds. 500-599.
The mark [3] stands for this setting: PS (50 μM) stimulated, cpds. 667-751.
[4] abbreviates: PS (50 μM) stimulated, cpds. 608-666.
[5] abbreviates: PS (50 μM) stimulated, cpds. 400-499.

Chain of mouse TRPM3α2 (mTRPM3) ion channel (J9SQF3 other isoform, or with tags, fused parts or gaps): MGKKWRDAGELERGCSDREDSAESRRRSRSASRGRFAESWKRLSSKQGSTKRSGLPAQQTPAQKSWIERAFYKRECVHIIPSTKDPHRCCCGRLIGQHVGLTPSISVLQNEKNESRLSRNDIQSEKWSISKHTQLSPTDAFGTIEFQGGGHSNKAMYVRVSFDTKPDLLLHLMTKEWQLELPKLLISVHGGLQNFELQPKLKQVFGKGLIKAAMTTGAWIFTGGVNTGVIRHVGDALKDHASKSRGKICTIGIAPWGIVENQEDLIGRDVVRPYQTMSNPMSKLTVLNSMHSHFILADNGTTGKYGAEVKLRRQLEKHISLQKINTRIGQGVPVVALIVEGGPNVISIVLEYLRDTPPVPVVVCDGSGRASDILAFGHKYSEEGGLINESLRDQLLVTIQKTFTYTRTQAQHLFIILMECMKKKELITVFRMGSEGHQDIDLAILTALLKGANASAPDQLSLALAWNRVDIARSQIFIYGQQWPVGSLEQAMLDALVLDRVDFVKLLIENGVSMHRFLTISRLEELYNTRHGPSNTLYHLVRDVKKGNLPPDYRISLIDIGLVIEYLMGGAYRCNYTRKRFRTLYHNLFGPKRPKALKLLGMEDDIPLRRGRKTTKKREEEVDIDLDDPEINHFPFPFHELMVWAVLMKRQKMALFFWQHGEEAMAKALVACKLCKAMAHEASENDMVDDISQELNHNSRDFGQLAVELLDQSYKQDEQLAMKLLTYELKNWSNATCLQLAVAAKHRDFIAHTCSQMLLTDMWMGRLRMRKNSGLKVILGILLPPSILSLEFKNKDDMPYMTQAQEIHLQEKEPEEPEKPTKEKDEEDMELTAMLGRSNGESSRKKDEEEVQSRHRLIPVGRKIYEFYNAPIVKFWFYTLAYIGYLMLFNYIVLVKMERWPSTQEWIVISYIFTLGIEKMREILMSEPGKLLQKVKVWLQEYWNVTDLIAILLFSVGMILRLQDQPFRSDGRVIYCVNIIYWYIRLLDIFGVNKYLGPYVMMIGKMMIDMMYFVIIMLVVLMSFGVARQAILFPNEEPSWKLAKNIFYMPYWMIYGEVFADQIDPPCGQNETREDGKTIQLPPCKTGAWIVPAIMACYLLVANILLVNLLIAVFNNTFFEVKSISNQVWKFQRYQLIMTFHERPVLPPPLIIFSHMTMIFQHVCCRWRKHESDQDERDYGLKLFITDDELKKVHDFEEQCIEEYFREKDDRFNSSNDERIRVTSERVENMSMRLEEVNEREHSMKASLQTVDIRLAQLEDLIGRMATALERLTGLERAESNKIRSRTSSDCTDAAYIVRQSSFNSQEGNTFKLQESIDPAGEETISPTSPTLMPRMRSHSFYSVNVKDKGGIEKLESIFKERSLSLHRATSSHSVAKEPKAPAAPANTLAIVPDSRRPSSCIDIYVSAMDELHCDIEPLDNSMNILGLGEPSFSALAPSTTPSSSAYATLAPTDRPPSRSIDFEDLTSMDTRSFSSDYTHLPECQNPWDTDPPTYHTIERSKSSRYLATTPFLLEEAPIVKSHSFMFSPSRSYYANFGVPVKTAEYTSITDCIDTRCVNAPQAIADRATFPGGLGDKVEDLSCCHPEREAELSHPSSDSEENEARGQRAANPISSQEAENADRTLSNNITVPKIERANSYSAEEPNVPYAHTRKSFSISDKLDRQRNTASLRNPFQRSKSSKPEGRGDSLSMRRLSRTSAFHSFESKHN

For the compound `Cc1oc2ccc(OCc3cccnc3OC(F)F)cc2c1C(=O)NC1CCNCC1(F)F` (single isomer, unassigned) [cpd 338-En 1], the IC50 – broadly, the point on the concentration scale where inhibition reaches its midpoint – (PS 50 μM, cpds 300-399) is less than 1 µM.

Take `Cc1oc2ccc(OCc3cccnc3C(F)(F)F)cc2c1C(=O)NC1CNCC(F)(F)C1` (single isomer, unassigned) [cpd 125-En 1]: the IC50 under setting [1] was less than 1 µM.

With `Cc1ncsc1COc1ccc2oc(C(F)F)c(C(=O)NC3(C(N)=O)COC3)c2c1` [compound 577, N-(3-carbamoyloxetan-3-yl)-2-(difluoromethyl)-5-((4-methylthiazol-5-yl)methoxy)benzofuran-3-carboxamide], under setting [2], the IC50 was less than 1 µM.

For `NC(=O)[C@H](CO)NC(=O)c1c(C(F)F)oc2ccc(OCc3ccccn3)cc12` [compound 744], under setting [3], the IC50 is less than 1 µM.

For the setting “PS 50 μM, cpds 200-299”, `Cc1oc2ccc(OCc3nccn3C)cc2c1C(=O)NC1CCNCC1(F)F` (single isomer, unassigned) [cpd 205-En 1] showed an IC50 of 1 to 20 µM.

Compound `Cc1ccncc1COc1ccc2oc(C)c(C(=O)N[C@@H](CO)C(N)=O)c2c1` [compound 287] yielded a half-maximal inhibitory concentration (IC50) (PS 50 μM, cpds 200-299) of less than 1 µM.

On to `Cc1oc2ccc(OCc3ccnn3C)cc2c1C(=O)NC1CNCC1(F)F` (single isomer, unassigned) [cpd 639-En 1], for which the IC50 under setting [4] is less than 1 µM.

In turn, `Cc1oc2ccc(OCc3cccnc3C(F)(F)F)cc2c1C(=O)NC1(CO)CCCOC1` (single isomer, unassigned) [cpd 531-En 1] came in with a half-maximal inhibitory concentration (IC50) under setting [2] of less than 1 µM.

As for `Cc1oc2ccc(OCc3cnccn3)cc2c1C(=O)N[C@@H](CO)C(N)=O` [compound 714, (S)-N-(1-Amino-3-hydroxy-1-oxopropan-2-yl)-2-methyl-5-(pyrazin-2-ylmethoxy)benzofuran-3-carboxamide], the half-maximal inhibitory concentration (IC50) under setting [3] was less than 1 µM.

As to `Cc1oc2ccc(OCc3ccccn3)cc2c1C(=O)NC1COCC1(F)F` (single isomer, unassigned) [cpd 647-En 1], under setting [4], the IC50 is less than 1 µM.

For the compound `Cc1ncc(COc2ccc3oc(C)c(C(=O)NCC(C)(F)F)c3c2)s1` [compound 499, N-(2,2-difluoropropyl)-2-methyl-5-((2-methylthiazol-5-yl)methoxy)benzofuran-3-carboxamide], the half-inhibitory concentration (IC50) under setting [5] is less than 1 µM.

For the compound `Cc1ncsc1COc1ccc2oc(C)c(C(=O)NC3COCCNC3=O)c2c1` (single isomer, unassigned) [cpd 317-En 1], the half-inhibitory concentration (IC50) (PS 50 μM, cpds 300-399) is less than 1 µM.

Consider `Cc1oc2ccc(OCc3cccnc3C(F)(F)F)cc2c1C(=O)Nc1cnn(C)c1` [compound 143, 2-methyl-N-(1-methyl-1H-pyrazol-4-yl)-5-((2-(trifluoromethyl)pyridin-3-yl)methoxy)benzofuran-3-carboxamide], for which the IC50 under setting [1] was less than 1 µM.

On to `Cc1nc(C)c(COc2ccc3oc(C)c(C(=O)NC4(CO)CCOCC4)c3c2)s1` [compound 345, 5-((2,4-dimethylthiazol-5-yl)methoxy)-N-(4-(hydroxymethyl)tetrahydro-2H-pyran-4-yl)-2-methylbenzofuran-3-carboxamide], for which the IC50 (PS 50 μM, cpds 300-399) is less than 1 µM.

Compound `Cc1oc2ccc(OCc3cccnn3)cc2c1C(=O)NC1(CO)CCOCC1` [compound 624, N-(4-(hydroxymethyl)tetrahydro-2H-pyran-4-yl)-2-methyl-5-(pyridazin-3-ylmethoxy)benzofuran-3-carboxamide] came in with a half-inhibitory concentration (IC50) under setting [4] of less than 1 µM.

As for `Cc1oc2ccc(OCc3cccnc3O)cc2c1C(=O)NC(C)(CO)CO` [compound 430, N-(1,3-dihydroxy-2-methylpropan-2-yl)-5-((2-hydroxypyridin-3-yl)methoxy)-2-methylbenzofuran-3-carboxamide], the IC50 under setting [5] is less than 1 µM.

For the compound `Cc1oc2ccc(OCc3nccs3)cc2c1C(=O)NC1(CO)COC1` [compound 527, N-(3-(hydroxymethyl)oxetan-3-yl)-2-methyl-5-(thiazol-2-ylmethoxy)benzofuran-3-carboxamide], under setting [2], the IC50 was less than 1 µM.

Under setting [5], `Cc1oc2ccc(OCc3ccccn3)cc2c1C(=O)NC1(CO)CCC1` [compound 415, N-(1-(hydroxymethyl)cyclobutyl)-2-methyl-5-(pyridin-2-ylmethoxy)benzofuran-3-carboxamide] registered an IC50 of less than 1 µM.

Take `Cc1oc2ccc(OCc3ccncc3)cc2c1C(=O)O` [compound 004, 2-methyl-5-(pyridin-4-ylmethoxy)benzofuran-3-carboxylic acid]: under setting [1], the concentration for half-maximal inhibition (IC50) was more than 20 µM.

As for `Cc1oc2ccc(OCc3ccc4cnccc4c3)cc2c1C(=O)NC1CCN(C)CC1` [compound 061, 5-(isoquinolin-6-ylmethoxy)-2-methyl-N-(1-methylpiperidin-4-yl)benzofuran-3-carboxamide], under setting [1], the IC50 is more than 20 µM.

Take `Cc1oc2ccc(OCc3cccnc3N)cc2c1C(=O)N[C@@H](CO)C(N)=O` [compound 300, (S)-N-(1-amino-3-hydroxy-1-oxopropan-2-yl)-5-((2-aminopyridin-3-yl)methoxy)-2-methylbenzofuran-3-carboxamide]: the concentration for half-maximal inhibition (IC50) (PS 50 μM, cpds 300-399) was less than 1 µM.

As for `Cc1oc2ccc(OCc3ncccn3)cc2c1C(=O)N[C@@H](CO)C(N)=O` [compound 712, (S)-N-(1-Amino-3-hydroxy-1-oxopropan-2-yl)-2-methyl-5-(pyrimidin-2-ylmethoxy)benzofuran-3-carboxamide], the half-inhibitory concentration (IC50) under setting [3] is less than 1 µM.

Compound `Cc1oc2ccc(OCc3ccccn3)cc2c1C(=O)N[C@H](C(N)=O)[C@@H](C)O` [compound 718, N-((2S,3R)-1-amino-3-hydroxy-1-oxobutan-2-yl)-2-methyl-5-(pyridin-2-ylmethoxy)benzofuran-3-carboxamide] showed a 50% inhibitory concentration (IC50) under setting [3] of less than 1 µM.

`Cc1oc2ccc(OCc3ccnn3C)cc2c1C(=O)NC1CNCCC1(F)F` (single isomer, unassigned) [cpd 636-En 1] gave a half-inhibitory concentration (IC50) under setting [4] of less than 1 µM.

For the setting “PS 50 μM, cpds 300-399”, `Cc1oc2ccc(OCc3cccnc3C(F)(F)F)cc2c1C(=O)N[C@@H]1C(=O)NC[C@H]1O` [compound 390, N-((3S,4R)-4-hydroxy-2-oxopyrrolidin-3-yl)-2-methyl-5-((2-(trifluoromethyl)pyridin-3-yl)methoxy)benzofuran-3-carboxamide] yielded a 50% inhibitory concentration (IC50) of less than 1 µM.

`Cc1ncsc1COc1ccc2oc(C)c(C(=O)NC3(CO)CCOCC3)c2c1` [compound 054, N-(4-(hydroxymethyl)tetrahydro-2H-pyran-4-yl)-2-methyl-5-((4-methylthiazol-5-yl)methoxy)-benzofuran-3-carboxamide] showed an IC50 under setting [1] of less than 1 µM.

Under setting [5], `Cc1ncc(COc2ccc3oc(C)c(C(=O)NC4(C(N)=O)CC4)c3c2)s1` [compound 476, N-(1-carbamoylcyclopropyl)-2-methyl-5-((2-methylthiazol-5-yl)methoxy)benzofuran-3-carboxamide] displayed an IC50 of less than 1 µM.

`Cc1oc2ccc(OCc3ccc(F)cn3)cc2c1C(=O)NC1CCNCC1(F)F` (single isomer, unassigned) [cpd 568-En 1] showed an IC50 under setting [2] of less than 1 µM.

Compound `Cc1ncsc1COc1ccc2oc(C)c(C(=O)NC3CCCCNC3=O)c2c1` (single isomer, unassigned) [cpd 661-En 1] yielded an IC50 under setting [4] of less than 1 µM.

Under setting [2], `CC(=O)NCCNC(=O)c1c(C)oc2ccc(OCc3scnc3C)cc12` [compound 501, N-(2-acetamidoethyl)-2-methyl-5-((4-methylthiazol-5-yl)methoxy)benzofuran-3-carboxamide] displayed an IC50 of less than 1 µM.

Consider `Cc1oc2ccc(OCc3cccnc3C(F)(F)F)c(C#N)c2c1C(=O)NC1CCNCC1(F)F` (single isomer, unassigned) [191-En 1, 4-cyano-N-(3,3-difluoropiperidin-4-yl)-2-methyl-5-((2-(trifluoromethyl)pyridin-3-yl)methoxy) -benzofuran-3-carboxamide], for which, under setting [1], the IC50 is more than 20 µM.

Under setting [1], `Cc1oc2ccc(OCc3cccnc3C(F)(F)F)cc2c1C(=O)Nc1ccnn1C` [compound 154, 2-methyl-N-(1-methyl-1H-pyrazol-5-yl)-5-((2-(trifluoromethyl)pyridin-3-yl)methoxy)benzofuran-3-carboxamide] gave an IC50 of less than 1 µM.

In the case of `Cc1ncsc1COc1ccc2oc(C)c(C(=O)NC3COCC3(F)F)c2c1` (single isomer, unassigned) [cpd 646-En 1], under setting [4], the IC50 was less than 1 µM.

In turn, `Cc1ncccc1COc1ccc2oc(C)c(C(=O)N[C@@H](CO)C(N)=O)c2c1` [compound 284, (S)-N-(1-amino-3-hydroxy-1-oxopropan-2-yl)-2-methyl-5-((2-methylpyridin-3-yl)methoxy)benzofuran-3-carboxamide] yielded a 50% inhibitory concentration (IC50) (PS 50 μM, cpds 200-299) of less than 1 µM.

With `Cc1cncc(COc2ccc3oc(C)c(C(=O)N[C@H]4CCNC4)c3c2)c1` [compound 028, (S)-2-methyl-5-((5-methylpyridin-3-yl)methoxy)-N-(pyrrolidin-3-yl)benzofuran-3-carboxamide], the IC50 under setting [1] was less than 1 µM.

Under setting [5], `Cc1ncc(COc2ccc3oc(C)c(C(=O)NC(COC(F)F)C(N)=O)c3c2)s1` (single isomer, unassigned) [447-En 1, N-(1-amino-3-(difluoromethoxy)-1-oxopropan-2-yl)-2-methyl-5-((2-methylthiazol-5-yl)methoxy)benzofuran-3-carboxamide] came in with a concentration for half-maximal inhibition (IC50) of less than 1 µM.

`Cc1ncsc1COc1ccc2oc(C)c(C(=O)N[C@H](C(N)=O)[C@@H](C)O)c2c1` [compound 378, N-((2S,3R)-1-amino-3-hydroxy-1-oxobutan-2-yl)-2-methyl-5-((4-methylthiazol-5-yl)methoxy)benzofuran-3-carboxamide] showed an IC50 (PS 50 μM, cpds 300-399) of less than 1 µM.

The compound `Cc1oc2ccc(OCc3cnnn3C)cc2c1C(=O)NC1CCNCC1(F)F` (single isomer, unassigned) [cpd 541-En 1] displayed an IC50 under setting [2] of 1 to 20 µM.

`Cc1ncsc1COc1ccc2oc(C)c(C(=O)Nc3cc[nH]n3)c2c1` [compound 144, 2-methyl-5-((4-methylthiazol-5-yl)methoxy)-N-(1H-pyrazol-3-yl)benzofuran-3-carboxamide] returned an IC50 under setting [1] of less than 1 µM.
